Results published in ChEMBL document CHEMBL1158881, “Puupehenone congeners from an indo-pacific hyrtios sponge” (J Nat Prod, 2003).
Activity calls are given as the source filed them.

Key:
Type in all cases: functional, cell-based
MC-38 = assay: Cytotoxicity against mouse Colon 38 cells by Valeriote soft agar disk diffusion assay
L1210 = assay: Cytotoxicity against mouse L1210 cells by Valeriote soft agar disk diffusion assay
H116 = assay: Cytotoxicity against human H116 cells by Valeriote soft agar disk diffusion assay

Measured: Activity

COC1=CC2=C[C@@H]3[C@@]4(C)CCCC(C)(C)[C@@H]4CC[C@]3(C)OC2=CC1=O
inactive: MC-38 | L1210 | H116

COc1cc2c(cc1O)O[C@@]1(C)CC[C@H]3C(C)(C)CCC[C@]3(C)C1=C2
inactive: MC-38 | L1210 | H116

COc1cc2c(cc1O)O[C@@]1(C)CC[C@H]3C(C)(C)CCC[C@]3(C)[C@H]1[C@@H]2OC
inactive: MC-38 | L1210 | H116
